Test results reported in article PMC9194936, “Preclinical Activity and Pharmacokinetic/Pharmacodynamic Relationship for a Series of Novel Benzenesulfonamide Perforin Inhibitors” (ACS Pharmacology & Translational Science, 2022).
Marks after values point to notes of the source that are not given here.

Experiments:
[1] = Splenocyte cellularity and tolerability in the bone marrow transfer assay; assay type: in vivo; conditions: all dose levels (100, 75 and 50% of MTD), qd x 4
Procedure: For the determination of splenic cell counts, mouse spleens were harvested and the cells dispersed in media by gentle teasing and then centrifuged at 500g. Cell pellets were resuspended in media and total spleen cell counts were performed manually using a standard hemocytometer and light microscopy. […] Peripheral blood cell counts and spleen white blood cell counts were determined on a Beckman Coulter Ac.T diff hematology analyzer.

[2] = Bodyweight, spleen and blood cellularity in unmanipulated naive mice; assay type: in vivo, mouse
Text: Splenic atrophy may occur as a direct treatment-related effect or indirectly subsequent to bodyweight loss.[32] Spleen size does normally vary so is not a reliable indicator of splenic dysfunction;[33] however, severe atrophy can prevent the normal function of the spleen and indicate systemic immunotoxicity.[34] Given that reduced splenic cellularity had not been noted in other in vivo mouse disease models using 1,[14],[15] we further investigated the impact of 1 on mouse spleen using extended dosing strategies on unmanipulated naïve mice and assessing changes in bodyweight, splenocyte, and blood cell counts and leukocyte frequencies in the spleen. The mice were treated with either 100 or 150 mg/kg of 1 given by intraperitoneal injection twice daily for up to 7 days.
For the determination of splenic cell counts, mouse spleens were harvested and the cells dispersed in media by gentle teasing and then centrifuged at 500g. Cell pellets were resuspended in media and total spleen cell counts were performed manually using a standard hemocytometer and light microscopy. Lymphocyte subsets were quantified by flow cytometry using the following antibody reagents: BV605 rat anti-mouse CD3 clone 17A2 (#564009, BD Biosciences); BV786 rat anti-mouse CD4 clone RM4–5 (#563727, BD Biosciences); BV711 rat anti-mouse CD8a clone 53-6.7 (#100748, BioLegend); PE-Cy7 mouse anti-mouse NK1.1 clone PK136 mouse (#552878, BD Biosciences); APC rat anti-mouse CD19 clone 1D3 (#550992, BD Biosciences). Peripheral blood cell counts and spleen white blood cell counts were determined on a Beckman Coulter Ac.T diff hematology analyzer.

[3] = Plasma protein binding by equilibrium dialysis; assay type: in vitro ADME, mouse
Procedure: The plasma protein binding of the compounds was determined by equilibrium dialysis (12–14 kDa cutoff membrane). […] The dialysis unit was covered with an adhesive sealing film to prevent evaporation of the contents and placed in an incubator (Innova-42, New Brunswick Scientific) maintained at 37 °C with gentle mixing (80 rpm) for 6 h. Next, a 10 μL sample was aspirated from the plasma side and mixed with 90 μL of fresh PBS, whereas a 90 μL sample from the buffer side was removed and combined with 10 μL of drug-free plasma to ensure uniform matrix composition. Ice-cold acetonitrile (300 μL; Merck Millipore, Burlington, MA) containing internal standard (a BZS analogue of similar chemical structure) was added to each sample to precipitate protein and was vortexed for 2 min and centrifuged for 5 min at 13 000 rpm. The supernatant was diluted with 0.01% formic acid in ultrapure water (Milli-Q) (1:1) and quantitated by liquid chromatography–tandem mass spectrometry (LC-MS/MS). Each compound was tested in triplicate alongside control compounds known to have low (e.g., lidocaine) and high (e.g., amitriptyline) plasma protein binding. For media binding studies, the same assay was used, but RPMI with 0.1% BSA was used in place of CD1 mouse plasma.

[4] = design: method as in PMID 28582670; AUC: concentration or dose not given beside the values; conditions: mouse plasma; cited from earlier work
perforin = target: T1, perforin (Mus musculus, UniProt P10820); assay: PK/PD relationship (sigmoid Emax model, regression analysis); conditions: in vivo mouse model
T1 construct: endogenous in cells; host or cells: recipient cytotoxic lymphocytes (NK/CTL) of wild-type C57BL/6 mice, in vivo
T1 sequence (P10820 21-554): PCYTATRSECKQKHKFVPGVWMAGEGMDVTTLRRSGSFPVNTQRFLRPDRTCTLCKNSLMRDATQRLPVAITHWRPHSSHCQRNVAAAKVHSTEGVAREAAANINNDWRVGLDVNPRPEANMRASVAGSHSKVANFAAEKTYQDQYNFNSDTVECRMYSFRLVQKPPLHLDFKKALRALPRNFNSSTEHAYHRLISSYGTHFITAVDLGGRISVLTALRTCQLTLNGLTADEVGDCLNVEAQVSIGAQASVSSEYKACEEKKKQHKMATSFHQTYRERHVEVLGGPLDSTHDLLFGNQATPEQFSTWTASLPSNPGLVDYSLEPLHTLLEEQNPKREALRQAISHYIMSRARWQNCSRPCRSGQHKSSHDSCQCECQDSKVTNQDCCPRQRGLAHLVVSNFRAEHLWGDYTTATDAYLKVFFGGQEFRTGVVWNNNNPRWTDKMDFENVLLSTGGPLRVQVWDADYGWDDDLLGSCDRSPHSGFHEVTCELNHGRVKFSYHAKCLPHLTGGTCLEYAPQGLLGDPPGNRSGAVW
Procedure: The relationship between efficacy (% perforin inhibition in peripheral blood and spleen) and pharmacokinetics was determined for different pharmacokinetic properties (Figure 5A,B). […] Simply maintaining the concentrations above a minimal level without reaching very high levels was not sufficient for perforin inhibition, as exemplified by three doses at 80 mg/kg.
The normality of in vivo perforin inhibition data was checked by Shapiro–Wilk and D’Agostino–Pearson normality tests. Statistical tests were performed by one-way ANOVA with multiple comparisons made to the vehicle-treated group and corrected using Dunnett’s post-test analysis. A comparison of measured and simulated plasma concentrations was analyzed by linear regression. Efficacy data were correlated to pharmacokinetic data using a sigmoid Emax model and regression analysis. All statistical analyses were conducted using Prism v8 or 9.

Q: With CN1Cc2cc(-c3ccc(-c4cncc(NS(=O)(=O)c5ccccc5[N+](=O)[O-])c4)s3)ccc2C1=O [Compound 1, N-{5-[5-(2-methyl-1-oxo-2,3-dihydro-1H-isoindol-5-yl)-2-thienyl]-3-pyridinyl}-2-nitrobenzenesulfonamide] as the compound, how does the “reductions in splenocyte number” value [1] read?
A: only minor reductions

Q: What about the tolerability [1] of the same compound?
A: well tolerated

Q: What about the platelets ([2]; 100 mg/kg i.p. bid ×7, n = 2) of the same compound?
A: 1041.5 ± 0.3 ^b ×10^9/L

Q: And the red blood cell ([2]; 100 mg/kg i.p. bid ×7, n = 2)?
A: 9.9 ± 0.3 ^b ×10^12/L

Q: And the white blood cell ([2]; 100 mg/kg i.p. bid ×7, n = 2)?
A: 6.1 ± 2.0 ^b ×10^9/L

Q: What about the “% change in bodyweight” value ([2]; 100 mg/kg i.p. bid ×7, n = 6) of the same compound?
A: –5 ± 2%

Q: And the “spleen: % CD3+CD4+” value ([2]; 100 mg/kg i.p. bid ×7, n = 6)?
A: 7.9 ± 3.3%

Q: And the “spleen: % CD3+CD8+” value ([2]; 100 mg/kg i.p. bid ×7, n = 6)?
A: 9.1 ± 2.6%

Q: What about the “spleen: % CD19+” value ([2]; 100 mg/kg i.p. bid ×7, n = 6) of the same compound?
A: 45.4 ± 10.1%

Q: What about the “spleen: % NK1.1+” value ([2]; 100 mg/kg i.p. bid ×7, n = 6) of the same compound?
A: 2.3 ± 0.6%

Q: And the “spleen: total cell count” value ([2]; 100 mg/kg i.p. bid ×7, n = 6)?
A: 0.39 ± 0.08 ×10^8

Q: What about the “% change in bodyweight” value ([2]; 150 mg/kg i.p. bid ×3, n = 3) of the same compound?
A: –5.1 ± 5.9%

Q: And the platelets ([2]; 150 mg/kg i.p. bid ×3, n = 3)?
A: 1163 ± 149 ×10^9/L

Q: And the red blood cell ([2]; 150 mg/kg i.p. bid ×3, n = 3)?
A: 9.5 ± 0.9 ×10^12/L

Q: And the “spleen: % CD3+CD4+” value ([2]; 150 mg/kg i.p. bid ×3, n = 3)?
A: 5.6 ± 3.8%

Q: And the “spleen: % CD3+CD8+” value ([2]; 150 mg/kg i.p. bid ×3, n = 3)?
A: 10.6 ± 3.4%

Q: What about the “spleen: % CD19+” value ([2]; 150 mg/kg i.p. bid ×3, n = 3) of the same compound?
A: 41.4 ± 5.3%

Q: And the “spleen: % NK1.1+” value ([2]; 150 mg/kg i.p. bid ×3, n = 3)?
A: 5.0 ± 0.7%

Q: What about the “spleen: total cell count” value ([2]; 150 mg/kg i.p. bid ×3, n = 3) of the same compound?
A: 0.41 ± 0.46 ×10^8

Q: What about the white blood cell ([2]; 150 mg/kg i.p. bid ×3, n = 3) of the same compound?
A: 6.0 ± 0.4 ×10^9/L

Q: What about the “weight loss, change in spleen or blood cell counts, reduction in splenic T, B or NK cells vs vehicle” value ([2]; 100 or 150 mg/kg i.p. twice daily for up to 7 days) of the same compound?
A: Neither dosing schedule resulted in weight loss, change in spleen or blood cell counts or any reduction

Q: And the fraction unbound at 6 h ([3]; CD1, mouse, pH 7.4, without saturation of plasma protein binding (99.8% protein-bound), read-out: free fraction in plasma)?
A: 0.002

Q: What about the total plasma concentration required for unbound IC90 at 6 h ([3]; CD1, mouse, pooled mouse plasma, pH 7.4, at a free fraction of 0.002, read-out: total plasma concentrations required to achieve unbound plasma concentrations equivalent to the in vitro unbound IC90) of the same compound?
A: ~350 µM

Q: And the fraction unbound at 6 h, 10 μM ([3]; CD1, pH 7.4, mouse plasma, 10 μM, equilibrium dialysis)?
A: 0.002

Q: What about the fraction unbound at 6 h, 10 μM ([3]; CD1, pooled mouse plasma, pH 7.4, concentration 10 μM, mouse plasma) of the same compound?
A: 0.002

Q: And the fraction unbound at 6 h, 100 μM ([3]; CD1, pooled mouse plasma, pH 7.4, concentration 100 μM, mouse plasma)?
A: 0.0006

Q: What about the fraction unbound at 6 h, 500 μM ([3]; CD1, pooled mouse plasma, pH 7.4, concentration 500 μM, mouse plasma) of the same compound?
A: 0.0019

Q: And the fraction unbound at 6 h, 1000 μM ([3]; CD1, pooled mouse plasma, pH 7.4, concentration 1000 μM, mouse plasma)?
A: 0.0038

Q: And the “increase in free drug concentrations” value ([3]; between 500 and 1000 μM)?
A: 4 fold

Q: And the unbound concentration ([3]; concentration 10 μM, mouse plasma)?
A: 0.02 µM

Q: What about the unbound concentration ([3]; concentration 100 μM, mouse plasma) of the same compound?
A: 0.06 µM

Q: What about the unbound concentration ([3]; concentration 500 μM, mouse plasma) of the same compound?
A: 0.95 µM

Q: And the unbound concentration ([3]; concentration 1000 μM, mouse plasma)?
A: 3.8 µM

Q: What about the AUC [4] of the same compound?
A: 415 µM·h

Q: And the Cmax [4]?
A: 105 µM

Q: What about the “total plasma concentration to be continuously maintained for optimal perforin inhibition” value (perforin) of the same compound?
A: > 900 µM
